Test: Passive permeability and efflux ratio (Caco-2)
Type: in vitro ADME
Settings: human; for efflux ratio at 120 min, 5 μM: pH 7.4, Caco-2, efflux ratio = Papp (B-to-A)/Papp (A-to-B), read-out: ER; for Papp A→B at 120 min, 5 μM: Caco-2, 5 μM, pH 7.4, 120 minutes
Method: Caco-2 cells (clone C2BBe1) are obtained, e.g., from American Type Culture Collection (Manassas, VA). Cell monolayers are grown to confluence on collagen-coated, microporous membranes in 12-well assay plates. The permeability assay buffer is Hanks' balanced salt solution containing 10 mM HEPES and 15 mM glucose at a pH of 7.4. The buffer in the receiver chamber also contains 1% bovine serum albumin. The dosing solution concentration is 5 μM of test article in the assay buffer. Cell monolayers are dosed on the apical side (A-to-B) or basolateral side (B-to-A) and incubated at 37° C. with 5% CO2 in a humidified incubator. Samples are taken from the donor and receiver chambers at 120 minutes. Each determination is performed in duplicate. The flux of lucifer yellow is also measured post-experimentally for each monolayer to ensure no damage is inflicted to the cell monolayers during the flux period. All samples are assayed by LC-MS/MS using electrospray ionization. The apparent permeability (Papp) and percent recovery were calculated as follows: Papp=(dCr/dt)×Vr/(A×CA) (1) Percent Recovery=100×((Vr×Cr^final)+(Vd×Cd^final))/(Vd×CN) (2), where, dCr/dt is the slope of the cumulative receiver concentration versus time in μM s^−1; Vr is the volume of the receiver compartment in cm^3; Vd is the volume of the donor compartment in cm^3; A is the area of the insert (1.13 cm^2 for 12-well); CA is the average of the nominal dosing concentration and the measured 120-minute donor concentration in μM; CN is the nominal concentration of the dosing solution in μM; Cr^final is the cumulative receiver concentration in μM at the end of the incubation period; Cd^final is the concentration of the donor in μM at the end of the incubation period. Efflux ratio (ER) is defined as Papp (B-to-A)/Papp (A-to-B). Rat Pharmacokinetics
Caco-2 cells (clone C2BBe1) were obtained from American Type Culture Collection (Manassas, VA). Cell monolayers were grown to confluence on collagen-coated, microporous membranes in 12-well assay plates. Details of the plates and their certification are shown below. The permeability assay buffer was Hanks' balanced salt solution containing 10 mM HEPES and 15 mM glucose at a pH of 7.4. The buffer in the receiver chamber also contained 1% bovine serum albumin. The dosing solution concentration was 5 μM of test article in the assay buffer. Cell monolayers were dosed on the apical side (A-to-B) or basolateral side (B-to-A) and incubated at 37° C. with 5% CO2 in a humidified incubator. Samples were taken from the donor and receiver chambers at 120 minutes. Each determination was performed in duplicate. The flux of lucifer yellow was also measured post-experimentally for each monolayer to ensure no damage was inflicted to the cell monolayers during the flux period. All samples were assayed by LC-MS/MS using electrospray ionization. The apparent permeability (Papp) and percent recovery were calculated as follows: Papp=(dCr/dt)×Vr/(A×CA) (1) Percent Recovery=100×((Vr×Cr^final)+(Vd×Cd^final))/(Vd×CN) (2), where, dCr/dt is the slope of the cumulative receiver concentration versus time in μM s^−1; Vr is the volume of the receiver compartment in cm^3; Vd is the volume of the donor compartment in cm^3; A is the area of the insert (1.13 cm^2 for 12-well); CA is the average of the nominal dosing concentration and the measured 120-minute donor concentration in μM; CN is the nominal concentration of the dosing solution in μM; Cr^final is the cumulative receiver concentration in μM at the end of the incubation period; Cd^final is the concentration of the donor in μM at the end of the incubation period. Efflux ratio (ER) is defined as Papp (B-to-A)/Papp (A-to-B).

efflux ratio at 120 min, 5 μM | Papp A→B at 120 min, 5 μM [×10⁻⁶ cm/s] | SMILES
2.51 | 15 | N#Cc1ccc(COc2cccc(N3CCN(Cc4nc5ccc(C(=O)O)cc5n4Cc4cncs4)[C@@H]4C[C@@H]43)n2)c(F)c1 (single isomer, unassigned) [Compound 1, 2-((5-(6-((4-cyano-2-fluorobenzyl)oxy)pyridin-2-yl)-2,5-diazabicyclo[4.1.0]heptan-2-yl)methyl)-1-(thiazol-5-ylmethyl)-1H-benzo[d]imidazole-6-carboxylic Acid]
1.71 | 27.9 | N#Cc1ccc(COc2cccc([C@@H]3CCN(Cc4nc5ccc(C(=O)O)cc5n4Cc4cncs4)[C@@H]4C[C@@H]43)n2)c(F)c1 (single isomer, unassigned) [Compound 5, 2-((5-(6-((4-Cyano-2-fluorobenzyl)oxy)pyridin-2-yl)-2-azabicyclo[4.1.0]heptan-2-yl)methyl)-1-(thiazol-5-ylmethyl)-1H-benzo[d]imidazole-6-carboxylic Acid]
1.31 | 16.8 | CC1(c2ccc(C#N)cc2F)Oc2cccc(C3CCN(Cc4nc5ccc(C(=O)O)cc5n4Cc4cncs4)CC3)c2O1 (centres unmarked) [Compound 18]
2.27 | 17.5 | CC1(c2ccc(C#N)cc2F)Oc2cccc(N3CCN(Cc4nc5ccc(C(=O)O)cc5n4CC4(C#N)CC4)C4CC43)c2O1 (centres unmarked) [Compound 40, 2-((5-(2-(4-Cyano-2-fluorophenyl)-2-methylbenzo[d][1,3]dioxol-4-yl)-2,5-diazabicyclo[4.1.0]heptan-2-yl)methyl)-1-((1-cyanocyclopropyl)methyl)-1H-benzo[d]imidazole-6-carboxylic Acid]

From US12410163B2, “Compounds as GLP-IR agonists” (Terns Pharmaceuticals, Inc., priority 2022, dated 2025)
